Reference: patent US4101656A, “7β-Acylamino-3-(alkanesulfonamidoalkyl substituted tetrazolylthiomethyl) cephalosporins, antibacterial compositions containing them and methods of treating bacterial infections with them” (Smithkline Corporation, priority 1976, dated 1978)
Converted amounts (≈) assume the structure as drawn. Like-named read-outs stand apart in the source and are kept apart here.

Legend:
S. aureus HH 127 = assay: in vitro MIC testing, S. aureus HH 127; assay type: cell-based
Description: (§1) The compounds of Formula I have exceptional antibacterial activity against both Gram-positive and Gram-negative organisms. Minimum inhibitory concentrations (MIC's) range from 0.2 to >200 μg/ml in in vitro testing. Test results for the compound 7β-D-mandelamido-3-[1-(2-methanesulfonamidoethyl)tetrazol-5-ylthiomethyl]-3-cephem-4-carboxylic acid sodium salt hydrate (Compound A) are given below: […]

S. aureus SK 23390 = assay: in vitro MIC testing, S. aureus SK 23390; assay type: cell-based
Description: as §1

Strep. faecalis HH 34358 = assay: in vitro MIC testing, Strep. faecalis HH 34358; assay type: cell-based
Description: as §1

E. coli SK 12140 = assay: in vitro MIC testing, E. coli SK 12140; assay type: cell-based; settings: Escherichia coli, SK12140
Description: as §1

E. coli HH 33779 = assay: in vitro MIC testing, E. coli HH 33779; assay type: cell-based
Description: as §1

Kleb. pneumo. SK 4200 = assay: in vitro MIC testing, Kleb. pneumo. SK 4200; assay type: cell-based
Description: as §1

Kleb. pneumo. SK 1200 = assay: in vitro MIC testing, Kleb. pneumo. SK 1200; assay type: cell-based
Description: as §1

Salmonella ATCC 12176 = assay: in vitro MIC testing, Salmonella ATCC 12176; assay type: cell-based; settings: ATCC12176, two values given
Description: as §1

Shigella HH 117 = assay: in vitro MIC testing, Shigella HH 117; assay type: cell-based; settings: HH117
Description: as §1

Pseudo. aerug. HH 63 = assay: in vitro MIC testing, Pseudo. aerug. HH 63; assay type: cell-based
Description: as §1

Proteus morgani 179 = assay: in vitro MIC testing, Proteus morgani 179; assay type: cell-based; settings: two values given
Description: as §1

Entero aerog. ATCC 13048 = assay: in vitro MIC testing, Entero aerog. ATCC 13048; assay type: cell-based; settings: two values given
Description: as §1

Entero. cloacae HH 31254 = assay: in vitro MIC testing, Entero. cloacae HH 31254; assay type: cell-based; settings: Enterobacter cloacae, HH31254
Description: as §1

Proteus mirabilis 444 = assay: in vitro MIC testing, Proteus mirabilis 444; assay type: cell-based
Description: as §1

E. coli 12140 = assay: in vivo mouse protection test, E. coli 12140
Description: (§2) 4200 upon subcutaneous injection; cefazolin gave results of 4 mg/kg against E. coli 12140 and 11.3 mg/kg against Kleb. pneumo. 4200 upon subcutaneous administration.

Kleb. pneumo. 4200 = assay: in vivo mouse protection test, Kleb. pneumo. 4200; settings: sc
Description: as §2

[1] = test system: Serratia marc. ATCC 13880; assay: in vitro MIC testing, Serratia marc. ATCC 13880; assay type: cell-based; settings: ATCC13880, two values given
Description: as §1

[2] = two values given, sodium salt hydrate

For `CS(=O)(=O)NCCn1nnnc1SCC1=C(C(=O)[O-])N2C(=O)[C@@H](NC(=O)[C@H](O)c3ccccc3)[C@H]2SC1.O.[Na+]` [Compound A, 7β-D-mandelamido-3-[1-(2-methanesulfonamidoethyl)tetrazol-5-ylthiomethyl]-3-cephem-4-carboxylic acid sodium salt hydrate], the MIC (S. aureus HH 127; Staphylococcus aureus, HH127, two values given) was 3.1 µg/mL, the MIC (S. aureus HH 127; [2]) was 1.6 µg/mL and the MIC (S. aureus SK 23390; Staphylococcus aureus, SK23390, two values given) was 0.8 µg/mL. The MIC (S. aureus SK 23390; [2]) was 0.4 µg/mL, the MIC (Strep. faecalis HH 34358; Enterococcus faecalis, HH34358, two values given) was 25 µg/mL and the MIC (Strep. faecalis HH 34358; [2]) was 12.5 µg/mL. It also gave an MIC (E. coli SK 12140) of 0.8 µg/mL, an MIC (E. coli HH 33779; Escherichia coli, HH33779, two values given) of 1.6 µg/mL and an MIC (E. coli HH 33779; [2]) of 0.8 µg/mL. The MIC (Kleb. pneumo. SK 4200) was 0.4 µg/mL, the MIC (Kleb. pneumo. SK 1200) was 0.4 µg/mL and the MIC (Salmonella ATCC 12176) was 0.4 µg/mL. It also gave an MIC (Shigella HH 117) of 0.2 µg/mL, an MIC (Pseudo. aerug. HH 63) greater than 200 µg/mL and an MIC (Proteus morgani 179) of 1.6 µg/mL. The MIC (Proteus morgani 179; sodium salt hydrate) was 0.8 µg/mL, the MIC (Entero aerog. ATCC 13048) was 1.6 µg/mL and the MIC (Entero aerog. ATCC 13048; sodium salt hydrate) was 0.8 µg/mL. For the same compound, the MIC (Entero. cloacae HH 31254) was 0.8 µg/mL, the MIC (Proteus mirabilis 444) was 0.8 µg/mL and the ED50 (E. coli 12140; Escherichia coli, 12140, sc) was 0.39 mg/kg. For the same compound, the ED50 (Kleb. pneumo. 4200; Mus musculus) was 2.44 mg/kg.

`Cc1nnc(SCC2=C(C(=O)O)N3C(=O)[C@@H](NC(=O)Cn4cnnn4)[C@H]3SC2)s1` [Cefazolin, reference compound] was tested, and the MIC (S. aureus HH 127; Staphylococcus aureus, HH127, two values given, read-out: MIC) was 0.4 µg/mL (≈ 0.88 µM), the MIC (S. aureus SK 23390; Staphylococcus aureus, SK23390, two values given, read-out: MIC) was 0.2 µg/mL (≈ 0.44 µM) and the MIC (Strep. faecalis HH 34358; Enterococcus faecalis, HH34358, two values given, read-out: MIC) was 6.3 µg/mL (≈ 13.9 µM). For the same compound, the MIC (E. coli SK 12140; E. coli SK 12140, two values given, read-out: MIC) was 0.8 µg/mL (≈ 1.76 µM), the MIC (E. coli HH 33779; Escherichia coli, HH33779, two values given, read-out: MIC) was 1.6 µg/mL (≈ 3.52 µM) and the MIC (Kleb. pneumo. SK 4200; Kleb. pneumo. SK 4200, two values given, read-out: MIC) was 1.6 µg/mL (≈ 3.52 µM). The MIC (Kleb. pneumo. SK 1200; Kleb. pneumo. SK 1200, two values given, read-out: MIC) was 0.8 µg/mL (≈ 1.76 µM), the MIC (Salmonella ATCC 12176) was 0.8 µg/mL (≈ 1.76 µM) and the MIC (Shigella HH 117) was 0.4 µg/mL (≈ 0.88 µM). It also gave an MIC (Pseudo. aerug. HH 63; Pseudo. aerug. HH 63, two values given, read-out: MIC) greater than 200 µg/mL, an MIC [1] greater than 200 µg/mL and an MIC (Proteus morgani 179; read-out: MIC) of 200 µg/mL (≈ 440 µM). For the same compound, the MIC (Entero aerog. ATCC 13048; read-out: MIC) was 1.6 µg/mL (≈ 3.52 µM), the MIC (Entero. cloacae HH 31254; Entero. cloacae HH 31254, two values given, read-out: MIC) was 0.8 µg/mL (≈ 1.76 µM) and the MIC (Proteus mirabilis 444; read-out: MIC) was 3.1 µg/mL (≈ 6.82 µM). It also gave an ED50 (E. coli 12140; Escherichia coli, sc, mouse protection, E. coli 12140, subcutaneous, read-out: ED50) of 4 mg/kg and an ED50 (Kleb. pneumo. 4200; mouse protection, Kleb. pneumo. 4200, subcutaneous, read-out: ED50) of 11.3 mg/kg.
